Reference: publication PMC6364417, “Kinase inhibitor library screening identifies synergistic drug combinations effective in sensitive and resistant melanoma cells” (Journal of Experimental & Clinical Cancer Research : CR, 2019)

What was measured:
Assay in all cases: Kinase inhibitor library screening, PrestoBlue cell viability, 1 or 10 μM, 72 h
[1] = tested on: 501Mel-GP cells (Dabrafenib-resistant); conditions: 501Mel GP
Description: (§1) After 72 h of treatment, cell viability was assessed using the PrestoBlue Cell Viability Reagent (ThermoFisher Scientific). Measurements were performed with the CLARIOstar Monochromator microplate reader (BMG Labtech).
(§2) Kinase inhibitor library screening. […] Each cell line was treated in its sensitive form (parental), and also as 2 resistant derivatives, which were made resistant to either Vemurafenib (XP) or Dabrafenib (GP). Drugs were added at 2 different concentrations, 1 and 10 μM, for 72 h and cell viability was assessed using the PrestoBlue Cell Viability assay. Results are depicted as % viability compared to untreated cells. Each cell line was analyzed at least in duplicate. […] (XLSX 95 kb)

IGR37 cells (parental) = conditions: IGR37 Parental
Description: as §1, §2

501Mel cells (parental) = conditions: 501Mel Parental
Description: as §1, §2

[2] = tested on: 501Mel-XP cells (Vemurafenib-resistant); conditions: 501Mel XP
Description: as §1, §2

A375 cells (parental) = conditions: A375 Parental
Description: as §1, §2

[3] = tested on: A375-GP cells (Dabrafenib-resistant); conditions: A375 GP
Description: as §1, §2

[4] = tested on: IGR37-XP cells (Vemurafenib-resistant); conditions: IGR37 XP
Description: as §1, §2

[5] = tested on: IGR37-GP cells (Dabrafenib-resistant); conditions: IGR37 GP
Description: as §1, §2

[6] = tested on: A375-XP cells (Vemurafenib-resistant); conditions: A375 XP
Description: as §1, §2

Cc1cc2c(F)c(Oc3ncnn4cc(OC[C@@H](C)OC(=O)[C@H](C)N)c(C)c34)ccc2[nH]1 [Brivanib alaninate (BMS-582664)]
cell viability (kinase inhibitor library screening) ([1]; 1μΜ, in %): 107.2 | cell viability (kinase inhibitor library screening) ([1]; 10μΜ, in %): 88.2 | cell viability (kinase inhibitor library screening) (IGR37 cells (parental); 1μΜ, in %): 107.1 | cell viability (kinase inhibitor library screening) (IGR37 cells (parental); 10μΜ, in %): 96.2 | cell viability (kinase inhibitor library screening) (501Mel cells (parental); 1μΜ, in %): 99.4 | cell viability (kinase inhibitor library screening) (501Mel cells (parental); 10μΜ, in %): 91.7 | cell viability (kinase inhibitor library screening) ([2]; 1μΜ, in %): 97.0 | cell viability (kinase inhibitor library screening) ([2]; 10μΜ, in %): 83.1 | cell viability (kinase inhibitor library screening) (A375 cells (parental); 1μΜ, in %): 104.1 | cell viability (kinase inhibitor library screening) (A375 cells (parental); 10μΜ, in %): 82.8 | cell viability (kinase inhibitor library screening) ([3]; 1μΜ, in %): 98.8 | cell viability (kinase inhibitor library screening) ([3]; 10μΜ, in %): 80.1 | cell viability (kinase inhibitor library screening) ([4]; 1μΜ, in %): 99.9 | cell viability (kinase inhibitor library screening) ([4]; 10μΜ, in %): 74.9 | cell viability (kinase inhibitor library screening) ([5]; 1μΜ, in %): 99.8 | cell viability (kinase inhibitor library screening) ([5]; 10μΜ, in %): 95.3 | cell viability (kinase inhibitor library screening) ([6]; 1μΜ, in %): 105.2 | cell viability (kinase inhibitor library screening) ([6]; 10μΜ, in %): 81.3

CN(C)c1ccc(-c2nc3ncc(Cl)c(N4CCN(CC(=O)Nc5nccs5)CC4)c3[nH]2)cc1 [CCT129202]
cell viability (kinase inhibitor library screening) ([1]; 1μΜ, 72 h): 99.5% | cell viability (kinase inhibitor library screening) ([1]; 10μΜ, 72 h): 41.1% | cell viability (kinase inhibitor library screening) (IGR37 cells (parental); 1μΜ, 72 h): 95.8% | cell viability (kinase inhibitor library screening) (IGR37 cells (parental); 10μΜ, 72 h): 78.6% | cell viability (kinase inhibitor library screening) (501Mel cells (parental); 1μΜ, 72 h): 93.7% | cell viability (kinase inhibitor library screening) (501Mel cells (parental); 10μΜ, 72 h): 52.8% | cell viability (kinase inhibitor library screening) ([2]; 1μΜ, 72 h): 85.2% | cell viability (kinase inhibitor library screening) ([2]; 10μΜ, 72 h): 16.7% | cell viability (kinase inhibitor library screening) (A375 cells (parental); 10μΜ, 72 h): 45.9% | cell viability (kinase inhibitor library screening) ([3]; 1μΜ, 72 h): 104.8% | cell viability (kinase inhibitor library screening) ([3]; 10μΜ, 72 h): 45.0% | cell viability (kinase inhibitor library screening) ([4]; 1μΜ, 72 h): 96.6% | cell viability (kinase inhibitor library screening) ([4]; 10μΜ, 72 h): 40.5% | cell viability (kinase inhibitor library screening) ([5]; 1μΜ, 72 h): 88.1% | cell viability (kinase inhibitor library screening) ([5]; 10μΜ, 72 h): 76.6% | cell viability (kinase inhibitor library screening) ([6]; 1μΜ, 72 h): 105.5% | cell viability (kinase inhibitor library screening) ([6]; 10μΜ, 72 h): 49.9%

Cc1cc(CN2CCN(c3c(Br)cnc4nc(-c5ccc(N6CCN(C)CC6)cc5)[nH]c34)CC2)no1 [CCT137690]
cell viability (kinase inhibitor library screening) ([1]; 1μΜ, 72 h): 95.4% | cell viability (kinase inhibitor library screening) ([1]; 10μΜ, 72 h): -0.454% | cell viability (kinase inhibitor library screening) (IGR37 cells (parental); 1μΜ, 72 h): 91.0% | cell viability (kinase inhibitor library screening) (IGR37 cells (parental); 10μΜ, 72 h): 0.571% | cell viability (kinase inhibitor library screening) (501Mel cells (parental); 1μΜ, 72 h): 87.2% | cell viability (kinase inhibitor library screening) (501Mel cells (parental); 10μΜ, 72 h): 0.283% | cell viability (kinase inhibitor library screening) ([2]; 1μΜ, 72 h): 76.9% | cell viability (kinase inhibitor library screening) ([2]; 10μΜ, 72 h): -0.565% | cell viability (kinase inhibitor library screening) (A375 cells (parental); 10μΜ, 72 h): 1.0% | cell viability (kinase inhibitor library screening) (A375 cells (parental); 1μΜ, 72 h): 56.7% | cell viability (kinase inhibitor library screening) ([3]; 1μΜ, 72 h): 56.6% | cell viability (kinase inhibitor library screening) ([3]; 10μΜ, 72 h): 0.6% | cell viability (kinase inhibitor library screening) ([4]; 1μΜ, 72 h): 93.1% | cell viability (kinase inhibitor library screening) ([4]; 10μΜ, 72 h): 0.741% | cell viability (kinase inhibitor library screening) ([5]; 1μΜ, 72 h): 88.6% | cell viability (kinase inhibitor library screening) ([5]; 10μΜ, 72 h): 1.7% | cell viability (kinase inhibitor library screening) ([6]; 10μΜ, 72 h): 0.9%

CN1CCN(c2cccc(Nc3nc4c(-c5ccc(S(C)(=O)=O)cc5)cccn4n3)c2)CC1 [CEP33779]
cell viability, 501Mel GP, 10μΜ ([1]; 10μΜ, 72 h, in %): 81.6 | cell viability, IGR37 Parental, 1μΜ (IGR37 cells (parental); 1μΜ, 72 h, in %): 103.9 | cell viability, IGR37 Parental, 10μΜ (IGR37 cells (parental); 10μΜ, 72 h, in %): 83.9 | cell viability, 501Mel Parental, 1μΜ (501Mel cells (parental); 1μΜ, 72 h, in %): 94.5 | cell viability, 501Mel Parental, 10μΜ (501Mel cells (parental); 10μΜ, 72 h, in %): 91.1 | cell viability, 501Mel XP, 1μΜ ([2]; 1μΜ, 72 h, in %): 88.8 | cell viability, 501Mel XP, 10μΜ ([2]; 10μΜ, 72 h, in %): 71.8 | cell viability, A375 Parental, 10μΜ (A375 cells (parental); 10μΜ, 72 h, in %): 76.5 | cell viability, A375 GP, 10μΜ ([3]; 10μΜ, 72 h, in %): 77.6 | cell viability, IGR37 XP, 10μΜ ([4]; 10μΜ, 72 h): 28.8% | cell viability, IGR37 XP, 1μΜ ([4]; 1μΜ, 72 h, in %): 90.4 | cell viability, IGR37 GP, 10μΜ ([5]; 10μΜ, 72 h): 67.9% | cell viability, IGR37 GP, 1μΜ ([5]; 1μΜ, 72 h, in %): 93.0 | cell viability, A375 XP, 1μΜ ([6]; 1μΜ, 72 h, in %): 100.1 | cell viability, A375 XP, 10μΜ ([6]; 10μΜ, 72 h, in %): 88.6
